Measurements as given in patent US20230190608A1, “COMPOSITIONS AND METHODS FOR IMPROVING THE APPEARANCE OF SKIN” (L'Oreal, priority 2021, published 2023).

Experiments:
[1] = tested on: normal human skin samples (explants); test: Ex vivo skin model, H&E staining (overall tissue health); format: cell-based; settings: 0.003% retinol in media, 7-day culture
[2] = tested on: desmocollin-1 (DSC1) expression; test: Ex vivo skin model, desmocollin-1 immunohistochemical staining; format: cell-based, human; settings: 0.003% retinol in media, 7-day culture
Experimental: The effect of acetyl trifluoromethylphenyl valylglycine and/or retinoids on skin turnover/desquamation, filaggrin expression, desmocollin-1 expression was evaluated in an ex vivo skin model. In this study, the effects of acetyl trifluoromethylphenyl valylglycine (0.1%), retinol (0.003%) and acetyl trifluoromethylphenyl valylglycine+retinol on the skin were evaluated by H&E (assessing for overall tissue health), filaggrin (assessing the level of barrier renewal) and desmocollin-1 (assessing the tight junction between the keratinocytes). Fresh post-abdominoplasty normal human skin samples (3 lots, age 36-59 years old, Hispanic/Caucasian/African American, female) were acquired from BioIVT Inc. (Westbury, N.Y.). Tissue was defatted and cleaned of blood residue. Explant samples were then created using a 12 mm biopsy punch. Samples were cleaned with sterile PBS. Skin biopsies not receiving treatment served as controls. Skin explants were maintained at air-liquid interface at 37° C. and 5% CO2 in four different treatment groups (n=3 per media type): • 1. […] The primary staining was followed by rabbit anti-mouse IgG or anti-rabbit Poly-HRP-IgG respectively and were detected using the Bond Polymer Refine Detection kit (DS9800, Leica Biosystems, UK). […]

[3] = tested on: filaggrin (FLG) expression; test: Ex vivo skin model, filaggrin immunohistochemical staining; format: cell-based, human; settings: 0.1% acetyl trifluoromethylphenyl valylglycine added to 0.003% retinol, 7-day culture
Experimental: The effect of acetyl trifluoromethylphenyl valylglycine and/or retinoids on skin turnover/desquamation, filaggrin expression, desmocollin-1 expression was evaluated in an ex vivo skin model. In this study, the effects of acetyl trifluoromethylphenyl valylglycine (0.1%), retinol (0.003%) and acetyl trifluoromethylphenyl valylglycine+retinol on the skin were evaluated by H&E (assessing for overall tissue health), filaggrin (assessing the level of barrier renewal) and desmocollin-1 (assessing the tight junction between the keratinocytes).
Fresh post-abdominoplasty normal human skin samples (3 lots, age 36-59 years old, Hispanic/Caucasian/African American, female) were acquired from BioIVT Inc. (Westbury, N.Y.). Tissue was defatted and cleaned of blood residue. Explant samples were then created using a 12 mm biopsy punch. Samples were cleaned with sterile PBS. Skin biopsies not receiving treatment served as controls. Skin explants were maintained at air-liquid interface at 37° C. and 5% CO2 in four different treatment groups (n=3 per media type): • 1. […]
Skin explants were processed for haematoxylin and eosin, and immunohistochemical staining (Reveal Biosciences, CA). […] The primary staining was followed by rabbit anti-mouse IgG or anti-rabbit Poly-HRP-IgG respectively and were detected using the Bond Polymer Refine Detection kit (DS9800, Leica Biosystems, UK). […]

[4] = format: in vitro ADME, human
Experimental: Human skin samples were obtained from abdominal surgery. Excess subcutaneous fat was removed, if necessary. Skin samples were excised and cut into pieces of around 2 cm×2 cm. Thickness was measured and transepidermal water loss (TEWL) was measured. The human skin was included in the study if the TEWL was between 0.5 and 13 g/m^2/h for abdominal skin. The 2 cm^2 skin samples were kept in a static cell in a diffusion chamber in a Franz cell horizontal cell clamp system (Crown Glass Company, Inc.) and maintained at a constant temperature of 32° C.±1° C. The static cells consist of a donor chamber and a receptor chamber with a 7 mL receptor fluid compartment separated by the skin.
The cells were placed on a magnetic stirrer which was integrated with a fixed temperature water bath maintained in order to have 32° C.±1° C. at the skin surface. The receptor compartment of each cell was filled with the receptor fluid (PBS) and was continuously stirred. The skin samples were placed on the receptor compartment. The donor compartment was then placed onto the skin samples. […]
A composition containing 2 wt % acetyl trifluoromethylphenyl valylglycine was applied to the skin sample at a rate of 10 mg/cell using a positive displacement pipette and the exact amount applied was determined by weight then recorded (Sartorius Entris II Essential Analytical balance, Thermo-Fisher). […]
The skin was then stripped with consistent weight and time of application. […] The strips samples were stored with solvent (methanol) at −20° C. for a maximum of 5 days before being analyzed. […] The RS vials were stored with solvent (methanol) at −20° C. for a maximum of 7 days before being analyzed. Dermis and epidermis samples were stored with solvent at −20° C. for a maximum of 7 days before being analyzed. The receptor fluid was taken 16 hours after the application and the samples were analyzed.
Receptor fluid samples were stored at −20° C. for a maximum of 6 days before being analyzed. […] Samples were stored at −20° C. for a maximum of 5 days before being analyzed.
The final extract was analyzed by LC-MS/MS. […]

amount penetrated through the stratum corneum [4] | amount penetrating past the stratum corneum barrier into epidermis, dermis and receptor fluid [4] | dermal dose [4] | SMILES | change in H&E [1] | expression of desmocollin-1 [2] | expression of filaggrin [3]
 |  |  | CC1=C(/C=C/C(C)=C/C=C/C(C)=C/CO)C(C)(C)CCC1 [retinol] | some mild level of skin irritation | downward expression | 
about 0.08 wt % | about 0.8% | at least 0.08 wt % | CC(=O)N(c1cccc(C(F)(F)F)c1)C(C(=O)NCC(=O)O)C(C)C (stereo not drawn) [acetyl trifluoromethylphenyl valylglycine] |  |  | increases the expression
